Experimental data taken from ChEMBL document CHEMBL5034037, “Synthesis, Characterization, and Preclinical Evaluation of a Small-Molecule Prostate-Specific Membrane Antigen-Targeted Monomethyl Auristatin E Conjugate” (J Med Chem, 2021).
Several values for one entry are separate records, joined by “and”; a condition that tells them apart may be missing. Equal values may be shown once. Activity calls are given as the source filed them. No cut-off for these calls is given here. *1 amine or outer side, *2 acyl side, *3 side chain or, on linkers, in order; H or OH if unused. Where a SMILES comes first, the peptide text is derived from it. [ ]: non-standard residue; d: D form. The star is where a group is joined. GluureaLys(ε-3-ClBenzyl) = O=C(O)CC[C@H](NC(=O)N[C@@H](CCCCN(Cc1cccc(Cl)c1)*)C(=O)O)C(=O)O; Dolaproine = CO[C@@H]([C@@H]1CCCN1)[C@@H](C)C(=O)O; Dil = CC[C@H](C)[C@H](NC)[C@@H](CC(=O)O)OC; X1 = O=C(CCCc1cn(CCCN[*:1])nn1)[*:2]; PABC = O=C(OCc1ccc(N[*:1])cc1)[*:2]; X2 = C[C@@H](N*)[C@@H](O)c1ccccc1; Cit = NC(=O)NCCC[C@H](N)C(=O)O; Suc = O=C(CCC(=O)[*:2])[*:1]; NMeV = CN[C@H](C(=O)O)C(C)C; Ahx = NCCCCCC(=O)O

Tests used:
[1] = Initial plasma concentration in Wistar rat plasma at 1.5 mg/kg, iv; format: ADME, organism-based
[2] = Toxicity in rabbit assessed as morphological changes in mucosa of trachea at 81 to 122 microg/kg, iv; format: tissue-based, Oryctolagus cuniculus; conditions: in vivo, dose 81-122 µg/kg
[3] = Toxicity in rat assessed as morphological changes in kidney at 150 to 225 microg/kg, iv; format: tissue-based; conditions: in vivo, dose 150-225 µg/kg
[4] = Toxicity in mouse xenografted with human 22Rv1 cells assessed as early fell at 0.6 mg/kg, ip daily treated for 5 days after 18 days of tumor implantation measured upto 10 days; format: organism-based, CWR22R; conditions: in vivo, 120 h, time 5 day
[5] = Half life in rabbit at 0.81 mg/kg, iv; format: ADME, organism-based, Oryctolagus cuniculus; conditions: in vivo
Cytochrome P450 2D6 [6] = molecular target: T1, Cytochrome P450 2D6 (Homo sapiens, UniProt P10635); assay: Inhibition of CYP2D6 in human liver microsome using dextromethorphan as substrate; format: ADME, microsomes
T1 sequence (P10635 whole entry): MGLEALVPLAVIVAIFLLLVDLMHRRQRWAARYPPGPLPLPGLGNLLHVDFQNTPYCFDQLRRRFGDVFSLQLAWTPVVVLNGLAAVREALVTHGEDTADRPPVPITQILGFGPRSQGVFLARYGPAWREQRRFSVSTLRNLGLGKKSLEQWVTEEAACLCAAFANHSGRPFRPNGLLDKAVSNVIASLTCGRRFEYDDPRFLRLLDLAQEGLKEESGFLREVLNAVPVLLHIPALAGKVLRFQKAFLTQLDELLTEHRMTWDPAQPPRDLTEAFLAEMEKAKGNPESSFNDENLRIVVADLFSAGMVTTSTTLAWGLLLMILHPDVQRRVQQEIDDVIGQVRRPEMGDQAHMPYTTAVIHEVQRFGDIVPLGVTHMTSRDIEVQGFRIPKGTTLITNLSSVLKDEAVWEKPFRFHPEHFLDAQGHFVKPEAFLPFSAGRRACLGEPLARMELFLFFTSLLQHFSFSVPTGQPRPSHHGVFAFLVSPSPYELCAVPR

[7] = Toxicity in rabbit assessed as morphological changes in adrenal medulla at 81 to 122 microg/kg, iv; design: species or system Oryctolagus cuniculus; conditions: in vivo, dose 81-122 µg/kg
[8] = Toxicity in rat assessed as morphological changes in lumen of trachea at 150 to 225 microg/kg, iv; format: tissue-based; conditions: in vivo, dose 150-225 µg/kg
[9] = Toxicity in rat assessed as morphological changes in spleen pulp at 150 to 225 microg/kg, iv; format: tissue-based; conditions: in vivo, dose 150-225 µg/kg
[10] = Acute toxicity in iv dosed ICR mouse assessed as median mortality dose; format: organism-based; conditions: in vivo
[11] = Toxicity in rat assessed as morphological changes in pancreas at 150 to 225 microg/kg, iv; format: tissue-based; conditions: in vivo, dose 150-225 µg/kg
Salmonella typhimurium [12] = assay: Mutagenecity in Salmonella typhimurium TA97 without metabolic activation system at 10 ug/ml by Ames test; format: toxicity, organism-based; conditions: salmonella enterica subsp. enterica serovar typhimurium; dose 10 µg/ml
[13] = Toxicity in rat assessed as morphological changes in diameter of aorta at 150 to 225 microg/kg, iv; format: tissue-based; conditions: in vivo, dose 150-225 µg/kg
[14] = Toxicity in rabbit assessed as morphological changes in brain ventricle at 81 to 122 microg/kg, iv; format: tissue-based, Oryctolagus cuniculus; conditions: in vivo, dose 81-122 µg/kg
[15] = Toxicity in rat assessed as morphological changes in lungs at 150 to 225 microg/kg, iv; conditions: in vivo, dose 150-225 µg/kg
Salmonella typhimurium [16] = assay: Mutagenecity in Salmonella typhimurium TA97 without metabolic activation system at 100 ug/ml by Ames test; format: toxicity, organism-based; conditions: salmonella enterica subsp. enterica serovar typhimurium; dose 100 µg/ml
[17] = Toxicity in rabbit morphological change in tongue at 81 to 122 microg/kg, iv; format: tissue-based, Oryctolagus cuniculus; conditions: in vivo, dose 81-122 µg/kg
[18] = Mean residence time (0 to t) in Wistar rat at 1.5 mg/kg, iv; format: ADME, organism-based; conditions: in vivo
[19] = Toxicity in rat assessed as morphological changes in peritoneum at 150 to 225 microg/kg, iv; format: tissue-based; conditions: in vivo, dose 150-225 µg/kg
Cytochrome P450 3A4 = Cytochrome P450 3A4 (Homo sapiens, UniProt P08684); assay: Inhibition of CYP3A4 in human liver microsome using midazolam as substrate; format: ADME, microsomes
Sequence of Cytochrome P450 3A4 (P08684 whole entry): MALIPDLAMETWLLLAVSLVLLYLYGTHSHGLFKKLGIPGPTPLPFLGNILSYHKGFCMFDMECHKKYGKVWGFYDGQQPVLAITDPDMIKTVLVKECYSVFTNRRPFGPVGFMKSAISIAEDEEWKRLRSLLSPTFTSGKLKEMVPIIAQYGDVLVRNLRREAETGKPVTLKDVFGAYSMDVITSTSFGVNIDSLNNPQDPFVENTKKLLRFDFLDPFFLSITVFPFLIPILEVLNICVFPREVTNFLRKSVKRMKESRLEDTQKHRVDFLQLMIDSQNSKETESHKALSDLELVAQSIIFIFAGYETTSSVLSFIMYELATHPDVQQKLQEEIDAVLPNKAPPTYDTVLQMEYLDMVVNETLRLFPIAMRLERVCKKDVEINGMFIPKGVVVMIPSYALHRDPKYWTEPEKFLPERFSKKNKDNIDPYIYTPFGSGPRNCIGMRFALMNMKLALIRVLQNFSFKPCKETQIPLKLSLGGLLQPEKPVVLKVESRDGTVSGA

[20] = Toxicity in rat assessed as morphological changes in bronchi at 150 to 225 microg/kg, iv; conditions: in vivo, dose 150-225 µg/kg
[21] = Chronic toxicity in rat assessed as change in acidity at […], iv administered once every 3 weeks for 3 months; format: organism-based; conditions: in vivo, 504 h, dose lower 150 mg/kg
PC-3 = assay: Induction of intracellular reactive oxygen species production in human PC-3 cells incubated for 1 hr measured at CC50 concentration by amperometric method; format: functional, cell-based
Salmonella typhimurium [22] = assay: Mutagenecity in Salmonella typhimurium TA100 without metabolic activation system at 10000 ug/ml by Ames test; format: toxicity, organism-based; conditions: salmonella enterica subsp. enterica serovar typhimurium; dose 10000 µg/ml
[23] = Toxicity in rabbit assessed as morphological changes in peritoneum at 81 to 122 microg/kg, iv; format: tissue-based, Oryctolagus cuniculus; conditions: in vivo, dose 81-122 µg/kg
[24] = Toxicity in rabbit assessed as morphological changes in loops of colon at 81 to 122 microg/kg, iv; format: tissue-based, Oryctolagus cuniculus; conditions: in vivo, dose 81-122 µg/kg
Cytochrome P450 2D6 [25] = molecular target: T1, Cytochrome P450 2D6; assay: Drug metabolism assessed as human liver microsome CYP2D6-mediatd metabolism; format: ADME; conditions: microsomes
Cathepsin B = Cathepsin B (Homo sapiens, UniProt P07858); assay: Stability of compound assessed as recombinant cathepsin B (unknown origin) mediated hydrolysis; format: ADME
[26] = Toxicity in rat assessed as morphological changes in gastric wall mucosa at 150 to 225 microg/kg, iv; conditions: in vivo, dose 150-225 µg/kg
[27] = Mean residence time in rabbit at 0.81 mg/kg, iv; format: ADME, organism-based, Oryctolagus cuniculus; conditions: in vivo
Salmonella typhimurium [28] = assay: Mutagenecity in Salmonella typhimurium TA97 without metabolic activation system at 1000 ug/ml by Ames test; format: toxicity, organism-based; conditions: salmonella enterica subsp. enterica serovar typhimurium; dose 1000 µg/ml
[29] = Toxicity in rabbit assessed as morphological changes in diameter of aorta at 81 to 122 microg/kg, iv; format: tissue-based, Oryctolagus cuniculus; conditions: in vivo, dose 81-122 µg/kg
Salmonella typhimurium [30] = assay: Mutagenecity in Salmonella typhimurium TA100 in presence of metabolic activation system at 10 ug/ml by Ames test; format: toxicity, organism-based; conditions: salmonella enterica subsp. enterica serovar typhimurium; dose 10 µg/ml
Cytochrome P450 2C8 = molecular target: T2, Cytochrome P450 2C8 (Homo sapiens, UniProt P10632); assay: Drug metabolism assessed as human liver microsome CYP2C8-mediatd metabolism; format: ADME; conditions: microsomes
T2 sequence (P10632 whole entry): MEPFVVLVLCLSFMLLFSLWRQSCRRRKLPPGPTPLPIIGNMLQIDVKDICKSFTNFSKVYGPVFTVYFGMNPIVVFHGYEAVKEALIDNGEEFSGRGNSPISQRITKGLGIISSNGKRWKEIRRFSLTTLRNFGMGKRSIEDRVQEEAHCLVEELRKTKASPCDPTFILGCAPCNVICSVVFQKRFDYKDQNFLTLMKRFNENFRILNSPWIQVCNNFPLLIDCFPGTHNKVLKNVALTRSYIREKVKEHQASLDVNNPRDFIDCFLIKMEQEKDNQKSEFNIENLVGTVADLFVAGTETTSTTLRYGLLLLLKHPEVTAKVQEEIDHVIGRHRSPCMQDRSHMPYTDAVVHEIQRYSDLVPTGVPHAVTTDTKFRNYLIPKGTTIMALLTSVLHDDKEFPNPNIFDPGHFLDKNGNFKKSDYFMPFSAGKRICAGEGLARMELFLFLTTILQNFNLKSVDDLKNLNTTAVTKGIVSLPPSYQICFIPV

[31] = Toxicity in rat assessed as morphological changes in spleen at 150 to 225 microg/kg, iv; format: tissue-based; conditions: in vivo, dose 150-225 µg/kg
Salmonella typhimurium [32] = assay: Mutagenecity in Salmonella typhimurium TA98 in presence of metabolic activation system at 1 ug/ml by Ames test; format: toxicity, organism-based; conditions: salmonella enterica subsp. enterica serovar typhimurium; dose 1 µg/ml
[33] = Toxicity in rabbit assessed as morphological changes in spleen at 81 to 122 microg/kg, iv; format: tissue-based, Oryctolagus cuniculus; conditions: in vivo, dose 81-122 µg/kg

CC[C@H](C)[C@@H]([C@@H](CC(=O)N1CCC[C@H]1[C@H](OC)[C@@H](C)C(=O)N[C@H](C)[C@@H](O)c1ccccc1)OC)N(C)C(=O)[C@@H](NC(=O)[C@H](C(C)C)N(C)C(=O)OCc1ccc(NC(=O)[C@H](CCCNC(N)=O)NC(=O)[C@@H](NC(=O)CCCc2cn(CCCNC(=O)[C@H](Cc3ccc(O)cc3)NC(=O)[C@H](Cc3ccccc3)NC(=O)CCC(=O)NCCCCCC(=O)N(CCCC[C@H](NC(=O)N[C@@H](CCC(=O)O)C(=O)O)C(=O)O)Cc3cccc(Cl)c3)nn2)C(C)C)cc1)C(C)C ({GluureaLys(ε-3-ClBenzyl)-Ahx-Suc}-FY[X1]V[Cit][PABC][NMeV]V[Dil][Dolaproine]-X2)
C0 [1]: 31000 ng/mL
Activity [2]: Non-Toxic
Activity [3]: Non-Toxic
Activity [4]: Toxic
half-life [5]: 4.6 h
IC50 (Cytochrome P450 2D6 [6]): > 25 µM
Activity [7]: Non-Toxic
Activity [8]: Non-Toxic
Activity [9]: Non-Toxic
LD50 [10]: 6.3 mg/kg and 2.7 µmol/kg
Activity [11]: Non-Toxic
Activity (Salmonella typhimurium [12]): Non-Toxic
Activity [13]: Non-Toxic
Activity [14]: Non-Toxic
Activity [15]: Non-Toxic
Activity (Salmonella typhimurium [16]): Non-Toxic
Activity [17]: Non-Toxic
MRT last [18]: 3.8 h
Activity [19]: Non-Toxic
IC50 (Cytochrome P450 3A4): 11.2 µM
Activity [20]: Non-Toxic
Activity [21]: Toxic
Activity (PC-3): Active
Activity (Salmonella typhimurium [22]): Non-Toxic
Activity [23]: Non-Toxic
Activity [24]: Non-Toxic
Drug metabolism (Cytochrome P450 2D6 [25]): Metabolite_Notdetected
Stability (Cathepsin B): Stable
Activity [26]: Non-Toxic
MRT [27]: 3.4 h
Activity (Salmonella typhimurium [28]): Non-Toxic
Activity [29]: Non-Toxic
Activity (Salmonella typhimurium [30]): Non-Toxic
Drug metabolism (Cytochrome P450 2C8): Metabolite_Notdetected
Activity [31]: Non-Toxic
Activity (Salmonella typhimurium [32]): Non-Toxic
Activity [33]: Non-Toxic
